In ChEMBL document CHEMBL6096696, “Structure-Activity Relationship Studies of an Autophagy Inhibitor That Targets the ATG14L-Beclin1 Protein-Protein Interaction Reveal Modifications That Improve Potency and Solubility and Maintain Selectivity” (J Med Chem, 2025):
pIC50: −log10 of the molar value. In brackets after ≈: the same amount, converted by molar mass. Activity calls are given as the source filed them. The calls are words filed in the database; no cut-off is given here.

Key:
[1] = test system: HEK293T; assay: Inhibition of C-terminal Nano-luc tagged ATG14L/C-terminal Halo-tagged Beclin 1 (unknown origin) PPI tranfected with HEK293T cells using […] at 100 uM incubated for 24 hrs by […] assay relative to control; format: cell-based; conditions: Homo sapiens, values are per cent of control
[2] = test system: HEK293T; assay: Inhibition of C-terminal Nano-luc tagged UVRAG/C-terminal Halo-tagged Beclin 1 (unknown origin) PPI tranfected with HEK293T cells using […] at 100 uM incubated for 24 hrs by […] assay relative to control; format: cell-based; conditions: Homo sapiens, values are per cent of control
[3] = test system: HeLa; assay: Cytotoxicity against human HeLa cells expressing eGFP-LC3 at 100 uM; format: functional, cell-based
[4] = Selectivity ratio of inhibition of C-terminal Nano-luc tagged UVRAG/C-terminal Halo-tagged Beclin 1 (unknown origin) PPI tranfected with HEK293T cells to inhibition of C-terminal Nano-luc tagged ATG14L/C-terminal Halo-tagged Beclin 1 (unknown origin) PPI tranfected with HEK293T cells
[5] = Kinetic aqueous solubility of compound in PBS at pH 7.4 by absorbance based analysis; format: physicochemical; conditions: read-out: Kinetic_solubility
[6] = Inhibition of C-terminal Nano-luc tagged ATG14L/C-terminal Halo-tagged Beclin 1 (unknown origin) PPI tranfected with HEK293T cells using […] incubated for 24 hrs by […] assay; format: cell-based, Homo sapiens
[7] = test system: A549; assay: Inhibition of autophagy in human A549 cells assessed as increase in fluorescence at 100 uM preincubated with DQ-BSA for 1 hr followed by compound addition and measured after 4 hrs by Hoechst 33342 staining based automated fluorescence microscopy analysis; format: functional, cell-based
[8] = test system: HeLa; assay: Inhibition of autophagy in human HeLa cells expressing eGFP-LC3 at 50 uM preincubated for 20 hrs followed by chloroquine addition and measured after 4 hrs by Hoechst 33342 staining based automated fluorescence microscopy analysis; format: functional, cell-based; conditions: time 24.0 hrs

SMILES | residual binding, % of control [1] | residual binding, % of control [2] | Activity [3] | Selectivity ratio [4] | solubility kinetic [5] | pIC50 [6] | inhibition [7] | inhibition [8]
CCCN1C(=O)COc2ccc(-c3ccccc3O)cc21 | 82.5% | 104% | Active | 1.26 | > 100 µM |  |  | 
Cc1cccc(NS(=O)(=O)c2ccc3c(c2)N(Cc2noc(C4CCC4)n2)C(=O)CO3)c1C | 60.6% |  |  |  | 50 µM (≈ 23.4 µg/mL) | 4.47 |  | 
CCCN1C(=O)COc2ccc(-c3cccc(C)c3)cc21 | 57.3% | 91.5% | Active | 1.59 | > 100 µM | 4.38 | Active | 
O=C1COc2ccc(-c3ccccc3C(F)(F)F)cc2N1Cc1noc(C2CCC2)n1 | 77.4% | 98% | Active; Compound Showed Less Cytotoxicity | 1.27 | > 100 µM |  |  | 
Cc1c(Cl)cccc1-c1ccc2c(c1)N(Cc1noc(C3CCC3)n1)C(=O)CO2 | 79.7% | 120% | Active; Compound Showed Less Cytotoxicity | 1.5 | > 100 µM |  |  | 
CCCN1C(=O)COc2ccc(-c3ccncc3)cc21 | 106% | 108% | Active | 1.03 | > 100 µM |  |  | 
O=C1COc2ccc(-c3ccccc3Cl)cc2N1Cc1noc(C2CCC2)n1 | 89.9% | 106% | Active; Compound Showed Less Cytotoxicity | 1.17 | > 100 µM |  |  | 
CCCN1C(=O)COc2ccc(-c3ccccc3C)cc21 | 65% | 84.6% | Active | 1.3 | > 100 µM | 4.37 | Active | 
O=C1COc2ccc(-c3cccc(Cl)c3Cl)cc2N1Cc1noc(C2CCC2)n1 | 86.8% | 101% | Active; Compound Showed Less Cytotoxicity | 1.17 | > 100 µM |  |  | 
Cc1cccc(-c2ccc3c(c2)N(Cc2noc(C4CCC4)n2)C(=O)CO3)c1Cl | 80.5% | 117% | Active; Compound Showed Less Cytotoxicity | 1.45 | > 100 µM |  |  | 
CC(C)c1ccccc1-c1ccc2c(c1)N(Cc1noc(C3CCC3)n1)C(=O)CO2 | 71.6% | 92.9% | Active; Compound Showed Less Cytotoxicity | 1.29 | > 100 µM |  |  | 
CCCN1C(=O)COc2ccc(-c3ccc(F)cc3F)cc21 | 63.8% | 84.2% | Active | 1.32 | > 100 µM |  |  | 
CCCN1C(=O)COc2ccc(-c3ccc(Cl)cc3Cl)cc21 | 65.8% | 82.6% | Active | 1.25 | > 100 µM | 4.54 | Active | 
Cc1cccc(-c2ccc3c(c2)N(Cc2noc(C4CCC4)n2)C(=O)CO3)c1C | 73.1% | 95.3% | Active; Compound Showed Less Cytotoxicity | 1.3 | > 100 µM | 4.90 |  | Active
CCCN1C(=O)COc2ccc(-c3cccc(OC(F)(F)F)c3)cc21 | 75.3% | 92.4% | Active | 1.22 | > 100 µM | 4.61 | Active | 
O=C1COc2ccc(-c3cccc(Cl)c3)cc2N1Cc1noc(C2CCC2)n1 | 85.1% | 116% | Active | 1.32 | > 100 µM |  |  | inactive
CCCN1C(=O)COc2ccc(-c3ccccc3)cc21 | 63.2% | 95.7% | Active | 1.51 | > 100 µM | 4.25 | Active | 
CC(C)c1ccccc1Nc1ccc2c(c1)N(Cc1noc(C3CCC3)n1)C(=O)CO2 | 82.4% | 105% |  | 1.27 | > 100 µM |  |  | 
O=C1COc2ccc(Nc3ccccc3Cl)cc2N1Cc1noc(C2CCC2)n1 | 93.6% | 104% |  | 1.11 | > 100 µM |  |  | 
O=C1COc2ccc(-c3ccc(F)cc3F)cc2N1Cc1noc(C2CCC2)n1 | 87.9% | 100% |  | 1.14 | > 100 µM |  |  | 
O=C1COc2ccc(-c3ccccc3F)cc2N1Cc1noc(C2CCC2)n1 | 79% | 98% |  | 1.24 | > 100 µM |  |  | 
O=C1COc2ccc(-c3ccccc3O)cc2N1Cc1noc(C2CCC2)n1 | 94.9% | 109% |  | 1.15 | > 100 µM |  |  | 
O=C1COc2ccc(-c3ccc(Cl)cc3Cl)cc2N1Cc1noc(C2CCC2)n1 | 89.7% | 105% | Active | 1.17 | > 100 µM |  |  | inactive
CCCN1C(=O)COc2ccc(-c3ccccc3OC)cc21 | 79.5% | 100% | Active | 1.26 | > 100 µM |  |  | 
O=C1COc2ccc(-c3cccc(F)c3F)cc2N1Cc1noc(C2CCC2)n1 | 85.1% | 94.8% |  | 1.11 | > 100 µM |  |  | 
O=C1COc2ccc(Nc3ccc(Cl)cc3Cl)cc2N1Cc1noc(C2CCC2)n1 | 79.1% | 102% |  | 1.29 | 50 µM (≈ 22.3 µg/mL) |  |  | 
CCCN1C(=O)COc2ccc(Nc3cccc(Br)c3)cc21 | 101% | 116% |  | 1.14 | 50 µM (≈ 18.1 µg/mL) |  |  | 
CCCN1C(=O)COc2ccc(Nc3ccccc3)cc21 | 75.8% | 116% |  | 1.54 | > 100 µM |  |  | 
Cc1cccc(-c2ccc3c(c2)N(Cc2noc(C4CCC4)n2)C(=O)CO3)c1 | 90.8% | 102% |  | 1.13 | > 100 µM |  |  | 
